From patent US20050175545A1, “Formulation for inhalation comprising a glucocorticoid and a beta 2-adrenoreceptor agonist” (priority 2002, published 2005)
Blank lines part the entries; values can stand above or below the compound they belong to.

Legend:
lung eosinophilia = assay: ovalbumin sensitised Brown Norway rat eosinophilia model; type: in vivo; settings: intra-tracheal suspension in saline 30 min prior to ovalbumin challenge
Description: Pharmacological activity in vivo was assessed in an ovalbumin sensitised Brown Norway rat eosinophilia model. This model is designed to mimic allergen induced lung eosinophilia, a major component of lung inflammation in asthma.

rat hepatocytes = assay: In vitro metabolism in rat hepatocytes; type: in vitro ADME; settings: 17-β carboxylic acid (X) only significant metabolite
[1] = Pharmacokinetics after intravenous and oral dosing in rats; settings: in vivo data in the rat
[2] = Pharmacokinetics after intra-tracheal dry powder dosing in the pig; type: in vivo; settings: intra-tracheal 1 mg; lower limits of quantitation 10 (Example 1) and 20 pg/mL (fluticasone propionate)
Description: Serial blood samples were taken for up to 8h following dosing.

[3] = Pharmacokinetics after intravenous administration in the anaesthetised pig; type: in vivo; settings: for clearance (comparison, in words): intravenous 0.1 mg/kg; for pharmacokinetic parameters (comparison, in words): intravenous mixture of the two compounds at 0.1 mg/kg
Source text: The clearance of these two glucocorticoids is similar is this experimental pig model.

human hepatocytes = assay: In vitro metabolism in human hepatocytes; type: in vitro ADME; settings: 17-β carboxylic acid (X) only significant metabolite
NFκB = NFκB firefly luciferase reporter stimulated with TNFα, transrepression; type: cell-based; settings: Homo sapiens, A549, read-out: Transrepression (NFκB) ED50 (nM)
Source text: The glucocorticoid receptor (GR) can function in at least two distinct mechanisms, by upregulating gene expression through the direct binding of GR to specific sequences in gene promoters, and by downregulating gene expression that is being driven by other transcription factors (such as NFκB or AP-1) through their direct interaction with GR.
The first cell line contains the firefly luciferase reporter gene under the control of a synthetic promoter that specifically responds to activation of the transcription factor NFκB when stimulated with TNFα. The second cell line contains the renilla luciferase reporter gene under the control of a synthetic promotor that comprises 3 copies of the consensus glucocorticoid response element, and which responds to direct stimulation by glucocorticoids. Simultaneous measurement of transactivation and transrepression was conducted by mixing the two cell lines in a 1:1 ratio in 96 well plate (40,000 cells per well) and growing overnight at 37° C. Test compounds were dissolved in DMSO, and added to the cells at a final DMSO concentration of 0.7%. After incubation for 1 h 0.5 ng/ml TNFα (R&D Systems) was added and after a further 15 hours at 37° C., the levels of firefly and renilla luciferase were measured using the Packard Firelite kit following the manufacturers' directions. Dose response curves were constructed from which EC50 values were determined.

plasma clearance (in words) [1]: approaching hepatic blood flow
time after dosing up to which quantifiable in plasma [2]: up to 2 hours
clearance (comparison, in words) [3]: similar
pharmacokinetic parameters (comparison, in words) [3]: the same
Structure (SMILES): C[C@@H]1CC2C3C[C@H](F)C4=CC(=O)C=C[C@]4(C)[C@@]3(F)[C@@H](O)C[C@]2(C)[C@@]1(OC(=O)c1ccco1)C(=O)SCF (stereo partly drawn) [Example 1, 6α,9α-Difluoro-17α-[(2-furanylcarbonyl)oxy]-11β-hydroxy-16α-methyl-3-oxo-androsta-1,4-diene-17β-carbothioic acid S-fluoromethyl ester]
inhibition of lung eosinophilia (dose relation, in words) (lung eosinophilia): dose dependant inhibition
manner of metabolism (rat hepatocytes): metabolised in an identical manner to fluticasone propionate
manner of metabolism (human hepatocytes): metabolised in an identical manner to fluticasone propionate

Structure (SMILES): CC1CC2C3CC(F)C4=CC(=O)C=CC4(C)C3(F)C(O)CC2(C)C1(OC(=O)c1ccsc1)C(=O)SCF (stereo not drawn) [Example 4, 6α,9α-Difluoro-11β-hydroxy-16α-methyl-3-oxo-17α-[(3-thienylcarbonyl)oxy]-androsta-1,4-diene-17β-carbothioic acid S-fluoromethyl ester]
plasma clearance (in words) [1]: approaching hepatic blood flow

Structure (SMILES): Cc1ccoc1C(=O)OC1(C(=O)SCF)C(C)CC2C3CC(F)C4=CC(=O)C=CC4(C)C3(F)C(O)CC21C (stereo not drawn) [Example 19, 6α,9α-Difluoro-11β-hydroxy-16α-methyl-17α-[(3-methylfuran-2-carbonyl)oxy]-3-oxo-androsta-1,4-diene-17β-carbothioic acid S-fluoromethyl ester]
plasma clearance (in words) [1]: approaching hepatic blood flow

Structure (SMILES): Cc1cc(C(=O)OC2(C(=O)SCF)C(C)CC3C4CC(F)C5=CC(=O)C=CC5(C)C4(F)C(O)CC32C)no1 (stereo not drawn) [Example 24, 6α,9α-Difluoro-11β-hydroxy-16α-methyl-17α-[(5-methylisoxazole-3-carbonyl)oxy]-3-oxo-androsta-1,4-diene-17β-carbothioic acid S-fluoromethyl ester]
plasma clearance (in words) [1]: approaching hepatic blood flow

Structure (SMILES): Cc1cc(C(=O)OC2(C(=O)SCF)C(C)CC3C4CC(F)C5=CC(=O)C=CC5(C)C4(F)C(O)CC32C)on1 (stereo not drawn) [Example 25, 6α,9α-Difluoro-11β-hydroxy-16α-methyl-17α-[(3-methylisoxazole-5-carbonyl)oxy]-3-oxo-androsta-1,4-diene-17β-carbothioic acid S-fluoromethyl ester]
plasma clearance (in words) [1]: approaching hepatic blood flow

Structure (SMILES): CC1CC2C3CC(F)C4=CC(=O)C=CC4(C)C3(F)C(O)CC2(C)C1(OC(=O)c1ccon1)C(=O)SCF (stereo not drawn) [Example 28, 6α,9α-Difluoro-11β-hydroxy-17α-[(isoxazole-3-carbonyl)oxy]-16α-methyl-3-oxo-androsta-1,4-diene-17β-carbothloic acid S-fluoromethyl ester]
plasma clearance (in words) [1]: approaching hepatic blood flow

time after dosing up to which quantifiable in plasma [2]: up to 8 hours
clearance (comparison, in words) [3]: similar
pharmacokinetic parameters (comparison, in words) [3]: the same
Structure (SMILES): CCC(=O)O[C@]1(C(=O)SCF)[C@H](C)C[C@H]2[C@@H]3C[C@H](F)C4=CC(=O)C=C[C@]4(C)[C@@]3(F)[C@@H](O)C[C@@]21C [Fluticasone propionate, 6α,9α-Difluoro-17α-(1-oxopropoxy)-11β-hydroxy-16α-methyl-3-oxo-androsta-1,4-diene-17β-carbothioic acid S-fluoromethyl ester, reference compound]

Structure (SMILES): C[C@@H]1C[C@H]2[C@@H]3C[C@H](F)C4=CC(=O)C=C[C@]4(C)[C@@]3(F)[C@@H](O)C[C@]2(C)[C@@]1(OC(=O)c1ccco1)C(=O)O [Metabolite (X)]
EC50 (NFκB): > 1000 nM
